pEC50: −log10 of the molar value. Like-named read-outs stand apart in the source and are kept apart here. Values belong to the compound of their own block, whether it stands above or below them.
Target: T1, human M1 receptor (hCHRM1) (Homo sapiens, UniProt P11229)
T1 construct: expressed in transfected cells; host or cells: CHO-K1
T1 sequence (P11229 1-460): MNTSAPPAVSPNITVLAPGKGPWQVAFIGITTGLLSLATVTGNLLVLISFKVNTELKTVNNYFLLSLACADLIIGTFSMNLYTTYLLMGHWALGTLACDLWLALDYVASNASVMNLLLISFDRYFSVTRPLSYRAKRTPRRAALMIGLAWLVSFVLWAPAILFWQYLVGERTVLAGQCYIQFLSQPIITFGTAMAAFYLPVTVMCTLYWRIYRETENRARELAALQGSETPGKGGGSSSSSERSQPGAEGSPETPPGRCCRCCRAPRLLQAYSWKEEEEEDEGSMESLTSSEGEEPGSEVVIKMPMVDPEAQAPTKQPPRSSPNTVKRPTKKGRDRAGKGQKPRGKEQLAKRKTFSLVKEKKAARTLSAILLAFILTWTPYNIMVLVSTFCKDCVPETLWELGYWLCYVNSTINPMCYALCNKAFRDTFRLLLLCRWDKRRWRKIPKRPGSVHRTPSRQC
Experiment: Measurement of cholinergic muscarinic M1 receptor positive allosteric modulator (M1PAM) activity, calcium fluorescence (FLIPRtetra)
Type: cell-based
Details: for activity (%) at 10 μM: test compound 10 μM with acetylcholine at EC20 (final 0.6 nM), 100% = acetylcholine 1 μM, 0% = DMSO
Description: The activity of a test compound in the presence of acetylcholine at EC20 concentration (final concentration 0.6 nM), which affords an action corresponding to 20% of the maximum activity, was measured as M1PAM activity. The method is as follows. CHO-K1 cells forcibly expressing a human M1 receptor (hCHRM1) were plated on a 384-well black clear bottom plate (BD Falcon) at 5,000 cells/well, and cultured in an incubator at 37° C., 5% CO2 for 1 day. The medium in the cell plate was removed, and assay buffer A (Recording medium (DOJINDO LABORATORIES), 0.1% bovine serum albumin (BSA) (Wako Pure Chemical Industries, Ltd.), 2.5 μg/mL Fluo-4 AM (DOJINDO LABORATORIES), 0.08% Pluronic F127 (DOJINDO LABORATORIES), 1.25 mM probenecid (DOJINDO LABORATORIES)) containing a calcium indicator was added at 30 μL/well. The cells were left standing in the incubator at 37° C., 5% CO2 for 30 min, and further left standing at room temperature for 30 min. A test compound prepared by diluting with assay buffer B (HBSS (Invitrogen), 20 mM HEPES (Invitrogen), 0.1% BSA) containing 2.4 nM acetylcholine was added at 10 μL/well, and the fluorescence was measured by FLIPRtetra (Molecular Devices) for 1 min every 1 second. With the definition that the amount of change in the fluorescence on addition of acetylcholine (final concentration 1 μM) is 100% and that on addition of DMSO instead of a test compound is 0%, the activity (%) of the test compound and the inflection point in the concentration-dependent curve of the test compound were calculated as IP values.

[1] = inflection point of the concentration-dependent curve, with acetylcholine at EC20 (final 0.6 nM), CHO-K1 cells expressing hCHRM1, read-out: IP value

SMILES: O=C(N[C@H]1CCCC[C@@H]1O)c1cn(Cc2ccc(-n3cccn3)cc2)c2c(F)ccc(F)c2c1=O (racemic) [Example 3, 5,8-difluoro-N-[(1,2-trans)-2-hydroxycyclohexyl]-4-oxo-1-[4-(1H-pyrazol-1-yl)benzyl]-1,4-dihydroquinoline-3-carboxamide]
pEC50: 8.06
activity (%) at 10 μM (CHO-K1 cells expressing hCHRM1): 93%

pEC50 [1]: 7.57
activity (%) at 10 μM (CHO-K1 cells expressing hCHRM1): 107%
SMILES: O=C(N[C@H]1CCCC[C@@H]1O)c1nn(Cc2ccc(-n3cccn3)cc2)c2ccccc2c1=O (racemic) [Example 4, N-[(1,2-trans)-2-hydroxycyclohexyl]-4-oxo-1-[4-(1H-pyrazol-1-yl)benzyl]-1,4-dihydrocinnoline-3-carboxamide]

SMILES: COc1ccc(Cn2cc(C(=O)N[C@H]3CCC[C@@H]3O)c(=O)c3c(F)ccc(F)c32)cc1 (racemic) [Example 25, 5,8-difluoro-N-[(1,2-trans)-2-hydroxycyclopentyl]-1-(4-methoxybenzyl)-4-oxo-1,4-dihydroquinoline-3-carboxamide]
pEC50 [1]: 6.72
activity (%) at 10 μM (CHO-K1 cells expressing hCHRM1): 98%

SMILES: COc1ccc(Cn2cc(C(=O)NC3CCCCC3CO)c(=O)c3c(F)ccc(F)c32)cc1 (racemic) [Example 65, 5,8-difluoro-N-[(1,2-trans)-2-(hydroxymethyl)-cyclohexyl]-1-(4-methoxybenzyl)-4-oxo-1,4-dihydroquinoline-3-carboxamide]
pEC50 [1]: 6.38
activity (%) at 10 μM (CHO-K1 cells expressing hCHRM1): 96%

pEC50 [1]: 7.80
activity (%) at 10 μM (CHO-K1 cells expressing hCHRM1): 97%
SMILES: COc1ccc(Cn2nc(C(=O)N[C@H]3CCOC[C@@H]3O)c(=O)c3ccccc32)cc1 (racemic) [Example 71, 1,5-anhydro-2,3-dideoxy-3-({[1-(4-methoxybenzyl)-4-oxo-1,4-dihydrocinnolin-3-yl]carbonyl}amino)-DL-threo-pentitol]

SMILES: NC(=O)c1ccc(Cn2cc(C(=O)N[C@H]3CCCC[C@@H]3O)c(=O)c3ccccc32)cc1 (racemic) [Example 74, 1-(4-carbamoylbenzyl)-N-[(1,2-trans)-2-hydroxycyclohexyl]-4-oxo-1,4-dihydroquinoline-3-carboxamide]
pEC50: 8.27
activity (%) at 10 μM (CHO-K1 cells expressing hCHRM1): 97%

pEC50 [1]: 8.11
activity (%) at 10 μM (CHO-K1 cells expressing hCHRM1): 99%
SMILES: NC(=O)c1ccc(Cn2nc(C(=O)N[C@H]3CCCC[C@@H]3O)c(=O)c3ccccc32)cc1 (racemic) [Example 75, 1-(4-carbamoylbenzyl)-N-[(1,2-trans)-2-hydroxycyclohexyl]-4-oxo-1,4-dihydrocinnoline-3-carboxamide]

SMILES: O=C(N[C@H]1CCCC[C@@H]1O)c1cn(Cc2ccc(-n3cccn3)cc2)c2c(F)cccc2c1=O (racemic) [Example 80, 8-fluoro-N-[(1,2-trans)-2-hydroxycyclohexyl]-4-oxo-1-[4-(1H-pyrazol-1-yl)benzyl]-1,4-dihydroquinoline-3-carboxamide]
pEC50: 7.68
activity (%) at 10 μM (CHO-K1 cells expressing hCHRM1): 92%

SMILES: CC(F)(F)c1ccc(Cn2cc(C(=O)N[C@H]3CCCC[C@@H]3O)c(=O)c3ccccc32)cc1 (racemic) [Example 82, 1-[4-(1,1-difluoroethyl)-benzyl]-N-[(1,2-trans)-2-hydroxycyclohexyl]-4-oxo-1,4-dihydroquinoline-3-carboxamide]
pEC50 [1]: 6.77
activity (%) at 10 μM (CHO-K1 cells expressing hCHRM1): 83%

SMILES: COc1ccc(Cn2cc(C(=O)N[C@H]3CC(F)(F)CC[C@@H]3O)c(=O)c3c(F)ccc(F)c32)cc1 (racemic) [Example 84, N-[(1,2-trans)-5,5-difluoro-2-hydroxycyclohexyl]-5,8-difluoro-1-(4-methoxybenzyl)-4-oxo-1,4-dihydroquinoline-3-carboxamide]
pEC50: 7.04
activity (%) at 10 μM (CHO-K1 cells expressing hCHRM1): 85%

SMILES: O=C(N[C@H]1CCCC[C@@H]1O)c1cn(Cc2ccc(-c3ccn[nH]3)cc2)c2ccccc2c1=O (racemic) [Example 85, N-[(1,2-trans)-2-hydroxycyclohexyl]-4-oxo-1-[4-(1H-pyrazol-5-yl)benzyl]-1,4-dihydroquinoline-3-carboxamide]
pEC50: 8.33
activity (%) at 10 μM (CHO-K1 cells expressing hCHRM1): 90%

SMILES: NC(=O)c1ccc(Cn2cc(C(=O)N[C@H]3CCCC[C@@H]3F)c(=O)c3ccccc32)cc1 (racemic) [Example 88, 1-(4-carbamoylbenzyl)-N-[(1,2-trans)-2-fluorocyclohexyl]-4-oxo-1,4-dihydroquinoline-3-carboxamide]
pEC50: 7.92
activity (%) at 10 μM (CHO-K1 cells expressing hCHRM1): 101%

SMILES: Cc1cc(-c2ccc(Cn3cc(C(=O)N[C@H]4CCC[C@@H]4O)c(=O)c4ccccc43)cc2)ccn1 (racemic) [Example 93, N-[(1,2-trans)-2-hydroxycyclopentyl]-1-[4-(2-methylpyridin-4-yl)benzyl]-4-oxo-1,4-dihydroquinoline-3-carboxamide]
pEC50: 7.92
activity (%) at 10 μM (CHO-K1 cells expressing hCHRM1): 95%

SMILES: COc1ccc(Cn2cc(C(N)=O)c(=O)c3c(F)ccc(F)c32)cc1 [Example 1, 5,8-difluoro-1-(4-methoxybenzyl)-4-oxo-1,4-dihydroquinoline-3-carboxamide]
pEC50 [1]: 6.20
activity (%) at 10 μM (CHO-K1 cells expressing hCHRM1): 90%

SMILES: CNC(=O)c1cn(Cc2ccc(OC)cc2)c2c(F)ccc(F)c2c1=O [Example 7, 5,8-difluoro-1-(4-methoxybenzyl)-N-methyl-4-oxo-1,4-dihydroquinoline-3-carboxamide]
pEC50 [1]: 5.46
activity (%) at 10 μM (CHO-K1 cells expressing hCHRM1): 71%

SMILES: COc1ccc(Cn2cc(C(=O)NC3CC3)c(=O)c3c(F)ccc(F)c32)cc1 [Example 8, N-cyclopropyl-5,8-difluoro-1-(4-methoxybenzyl)-4-oxo-1,4-dihydroquinoline-3-carboxamide]
pEC50 [1]: 5.70
activity (%) at 10 μM (CHO-K1 cells expressing hCHRM1): 100%

pEC50 [1]: 5.21
activity (%) at 10 μM (CHO-K1 cells expressing hCHRM1): 77%
SMILES: COc1ccc(Cn2cc(C(=O)NN)c(=O)c3ccccc32)cc1 [Example 13, 1-(4-methoxybenzyl)-4-oxo-1,4-dihydroquinoline-3-carbohydrazide]

SMILES: COc1ccc(Cn2cc(C(=O)NC3CCCCC3)c(=O)c3c(F)ccc(F)c32)cc1 [Example 14, N-cyclohexyl-5,8-difluoro-1-(4-methoxybenzyl)-4-oxo-1,4-dihydroquinoline-3-carboxamide]
pEC50 [1]: 6.04
activity (%) at 10 μM (CHO-K1 cells expressing hCHRM1): 96%

SMILES: COc1ccc(Cn2cc(C(=O)NCCO)c(=O)c3c(F)ccc(F)c32)cc1 [Example 17, 5,8-difluoro-N-(2-hydroxyethyl)-1-(4-methoxybenzyl)-4-oxo-1,4-dihydroquinoline-3-carboxamide]
pEC50 [1]: 5.24
activity (%) at 10 μM (CHO-K1 cells expressing hCHRM1): 69%

SMILES: COCCNC(=O)c1cn(Cc2ccc(OC)cc2)c2c(F)ccc(F)c2c1=O [Example 20, 5,8-difluoro-1-(4-methoxybenzyl)-N-(2-methoxyethyl)-4-oxo-1,4-dihydroquinoline-3-carboxamide]
pEC50 [1]: 5.30
activity (%) at 10 μM (CHO-K1 cells expressing hCHRM1): 72%

SMILES: COc1ccc(Cn2cc(C(=O)NN3CCCCC3)c(=O)c3c(F)ccc(F)c32)cc1 [Example 21, 5,8-difluoro-1-(4-methoxybenzyl)-4-oxo-N-piperidin-1-yl-1,4-dihydroquinoline-3-carboxamide]
pEC50 [1]: 6.55
activity (%) at 10 μM (CHO-K1 cells expressing hCHRM1): 97%

SMILES: COc1ccc(Cn2cc(C(=O)N[C@H]3CCCC[C@@H]3O)c(=O)c3c(F)ccc(F)c32)cc1 [Example 27, 5,8-difluoro-N-[(1S,2S)-2-hydroxycyclohexyl]-1-(4-methoxybenzyl)-4-oxo-1,4-dihydroquinoline-3-carboxamide]
pEC50: 7.42
activity (%) at 10 μM (CHO-K1 cells expressing hCHRM1): 102%
